Test results from patent US20230114728A1 (Venatorx Pharmaceuticals, Inc., priority 2019, published 2023).
Values after ≈ are worked out from the molar mass of the structure shown.

Legend:
[1] = target: T1, P. aeruginosa PBP3 (Pseudomonas aeruginosa, UniProt G3XD46); experiment: Bocillin-FL fluorescence polarization competition binding assay, P. aeruginosa PBP3; settings: fluorescence polarization competition binding assay using Bocillin-FL
T1 construct: made in house
Text: (§1) Example I: Experimental Method for Penicillin-Binding Protein Binding Assays with Bocillin-FL Via Fluorescence Polarization
(§2) To determine the ability of boronic acid-based test PBP inhibitors to bind Penicillin Binding Proteins (PBPs), Bocillin-FL (fluorescently-labeled penicillin V; ThermoFisher Scientific) was used in a fluorescence polarization (FP) competition binding assay to assess inhibitor binding to PBP2, PBP3 or PBP4 from Escherichia coli (K12), PBP3 from Pseudomonas aeruginosa (PA01), PBP1a, PBP2 and PBP3 from Acinetobacter baumannii (ATCC 19606), and PBP2 from Neiserria gonorrheae (FA19). PBPs were cloned and purified as described previously (E. coli PBPs, King, D. T, et al., ACS Infectious Diseases 2015, 1, 175-184; P. aeruginosa PBP3, Han et. al., PNAS 2010, 107 (51), 22002-22007; A. baumannii PBPs, Penwell et. al., Antimicrob. Agents Chemother. 2015, 59 (3), 1680-1689; N. gonorrhoeae PBP2, Singh et. al., J Biol. Chem. 2019, 294 (38), 14020-14032). To establish assay conditions for competition binding, enzyme titration/saturation binding experiments were initially performed. Bocillin-FL was prepared at 0.2 μM in a buffer comprised of 50 mM Hepes (pH 8.0), 300 mM NaCl and 5% (v/v) glycerol for reactions with E. coli, P. aeruginosa and N. gonorrhoeae PBPs, and 25 mM Tris (pH 8.0), 200 mM NaCl and 10% (v/v) glycerol and 0.005% (v/v) Tween 20 for reactions with A. baumannii PBPs. Saturation binding was performed by mixing 40 μl of PBP solutions ranging in concentrations from 0-24 μM with 40 μl of the 0.2 μM Bocillin-FL solution, in individual wells of a black 384-well microplate. FP was measured immediately upon mixing (Excitation, 490 nm; Emission, 520 nm; g-factor, 0.96), using a Cytation3 (BioTek) microplate reader and measured continuously for up to 120 minutes. […] The competition binding assay (80 μl final volume) was validated using beta-lactams and PBPs at final concentrations of: 1.5 μM, E. coli PBP3; 0.75 μM, P. aeruginosa PBP3; 1 μM A. baumannii PBP1a; 2.5 μM A. baumannii PBP2; 0.2 μM A. baumannii PBP3; and […] N. gonorrhoeae PBP2. Bocillin-FL was at 0.1 μM (0.05 μM with A. baumannii PBP1a) and beta-lactam concentrations ranged from 0-1000 μM. […] Bocillin-FL was added and the FP immediately measured for up to 60 minutes (90 minutes for E. coli PBP2). […] The beta-lactam potency was reported as the concentration of beta-lactam required to reduce the amount of PBP bound-Bocillin-FL by 50% (EC50). […] Binding assays for boronic acid PBP inhibitors were performed in an identical fashion for the respective PBPs

[2] = tested on: P. aeruginosa ATCC 35151; experiment: Broth microdilution MIC in CAMHB; type: cell-based; settings: Pseudomonas aeruginosa, ATCC35151; MHB; hyper-permeable strain; read-out: Minimum Inhibitory Concentration, P. aeruginosa ATCC 35151
Description: (§3) Example III: In Vitro Antibacterial Assays
(§4) To determine the ability of test compounds to inhibit the growth of bacterial strains, classic cell based broth microdilution minimum inhibitory concentration (MIC) assays were employed. MIC assays are performed according to CLSI methods except where otherwise noted (CLSI, 2018 and CLSI, 2019). The reference type strain E. coli ATCC 25922; the wild-type parent strain E. coli AG100; the hyper-permeable E. coli 901C and E. coli D22; and the E. coli AG100A strain lacking the acrAB efflux pump encoding genes were used to determine the ability of the PBP inhibitors to penetrate the outer membrane of gram-negative bacteria and inhibit bacterial growth. […] The P. aeruginosa ATCC 27853 and A. baumannii ATCC 19606, along with the hyper-permeable P. aeruginosa ATCC 35151 and an engineered efflux pump-compromised strain of P. aeruginosa (ΔmexAB-oprM) were used to determine the ability of PBP inhibitors to penetrate the outer membrane of P. aeruginosa and A. baumannii and assess antibacterial activity against these important gram-negative organisms.
(§5) Briefly, cryo-preserved bacterial cultures of challenge strains are streaked for isolation on appropriate agar medium, in this case cation-adjusted Mueller Hinton agar. Following incubation to allow growth of the colonies, plates are sealed with parafilm and stored refrigerated for up to two weeks. For preparation of assay inoculum and to ensure low variability, at least 5 colonies are picked from the agar plates with an inoculating loop and aseptically transferred to a culture tube containing 3 mL of cation-adjusted Mueller Hinton broth (CAMHB). The broth culture is grown for 3-5 hours at 37° C. with shaking at 200 rpm. Meanwhile, 2-fold serial dilutions of test compounds are conducted in a 96-well plate with a final volume of 75 μL per well at 2-fold the final desired concentration. After the dilution plates are set up the growing cultures are then diluted in a cuvette containing CAMHB and the optical density is measured at 600 nm. The inoculum is diluted such that 75 μL of this culture in CAMHB results in a starting bacterial concentration of 2-8×10^5 CFU/mL when added to the dilution plates. The plates are incubated for 16-20 hours for Enterobacteriaceae and Pseudomonas and 20-24 hours for Acinetobacter at 37° C. The MIC values are read visually as the lowest concentration well with no bacterial growth.

[3] = tested on: P. aeruginosa (ΔmexAB-oprM); experiment: Broth microdilution MIC in CAMHB; type: cell-based; settings: Pseudomonas aeruginosa, read-out: Minimum Inhibitory Concentration, P. aeruginosa ΔmexAB-OprM
Description: as §3, §4, §5

[4] = tested on: K. pneumoniae SI-117 producing VIM-1; experiment: Broth microdilution MIC in CAMHB; type: cell-based; settings: Klebsiella pneumoniae, read-out: Minimum Inhibitory Concentration, K. pneumoniae SI-117
Description: as §3, §4, §5

[5] = tested on: K. pneumoniae UMM producing SHV-5 and KPC-2; experiment: Broth microdilution MIC in CAMHB; type: cell-based; settings: Klebsiella pneumoniae, read-out: Minimum Inhibitory Concentration, K. pneumoniae UMM
Description: as §3, §4, §5

[6] = tested on: E. coli AG100; experiment: Broth microdilution MIC in CAMHB; type: cell-based; settings: Escherichia coli; E. coli AG100 (wild-type parent); MHB; read-out: Minimum Inhibitory Concentration, E. coli AG100
Description: as §3, §4, §5

[7] = tested on: A. baumannii ATCC 19606; experiment: Broth microdilution MIC in CAMHB; type: cell-based; settings: Acinetobacter baumannii, ATCC19606; MHB; read-out: Minimum Inhibitory Concentration, A. baumannii ATCC 19606
Description: as §3, §4, §5

[8] = tested on: P. aeruginosa ATCC 27853; experiment: Broth microdilution MIC in CAMHB; type: cell-based; settings: Pseudomonas aeruginosa, ATCC27853; MHB; read-out: Minimum Inhibitory Concentration, P. aeruginosa ATCC 27853
Description: as §3, §4, §5

[9] = tested on: E. coli AG100A; experiment: Broth microdilution MIC in CAMHB; type: cell-based; settings: Escherichia coli, read-out: Minimum Inhibitory Concentration, E. coli AG100A
Description: as §3, §4, §5

[10] = tested on: K. pneumoniae 848844 producing SHV-11 and KPC-2; experiment: Broth microdilution MIC in CAMHB; type: cell-based; settings: Klebsiella pneumoniae, read-out: Minimum Inhibitory Concentration, K. pneumoniae 848844
Description: as §3, §4, §5

[11] = tested on: E. coli ATCC 25922; experiment: Broth microdilution MIC in CAMHB; type: cell-based; settings: Escherichia coli, ATCC25922; E. coli ATCC 25922; MHB; read-out: Minimum Inhibitory Concentration, E. coli 25922
Description: as §3, §4, §5

[12] = tested on: E. coli 901C; experiment: Broth microdilution MIC in CAMHB; type: cell-based; settings: Escherichia coli; E. coli 901C (hyper-permeable); MHB; read-out: Minimum Inhibitory Concentration, E. coli 901C
Description: as §3, §4, §5

[13] = tested on: E. coli D22; experiment: Broth microdilution MIC in CAMHB; type: cell-based; settings: Escherichia coli; E. coli D22 (hyper-permeable); MHB; read-out: Minimum Inhibitory Concentration, E. coli D22
Description: as §3, §4, §5

[14] = target: T2, E. coli K12 PBP3 (Escherichia coli, UniProt P0AD68); experiment: biochemical; type: binding
T2 construct: made in house
Text: as §1, §2

T2 sequence (P0AD68 1-577): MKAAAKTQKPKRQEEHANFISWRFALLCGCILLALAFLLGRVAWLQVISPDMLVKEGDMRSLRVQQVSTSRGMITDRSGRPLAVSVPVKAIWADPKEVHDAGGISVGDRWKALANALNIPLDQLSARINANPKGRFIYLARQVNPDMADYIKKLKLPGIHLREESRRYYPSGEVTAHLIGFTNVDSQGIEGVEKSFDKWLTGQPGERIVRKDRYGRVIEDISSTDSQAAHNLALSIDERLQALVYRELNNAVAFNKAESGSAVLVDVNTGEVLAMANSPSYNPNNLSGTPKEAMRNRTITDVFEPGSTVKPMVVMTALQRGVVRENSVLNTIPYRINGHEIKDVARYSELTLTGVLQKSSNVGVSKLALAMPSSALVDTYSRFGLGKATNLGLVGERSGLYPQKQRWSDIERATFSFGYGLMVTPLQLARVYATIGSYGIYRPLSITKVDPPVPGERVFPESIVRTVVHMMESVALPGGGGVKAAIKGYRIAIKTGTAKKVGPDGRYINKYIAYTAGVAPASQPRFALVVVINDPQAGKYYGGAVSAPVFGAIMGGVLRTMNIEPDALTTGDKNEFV
T1 sequence (G3XD46 whole entry): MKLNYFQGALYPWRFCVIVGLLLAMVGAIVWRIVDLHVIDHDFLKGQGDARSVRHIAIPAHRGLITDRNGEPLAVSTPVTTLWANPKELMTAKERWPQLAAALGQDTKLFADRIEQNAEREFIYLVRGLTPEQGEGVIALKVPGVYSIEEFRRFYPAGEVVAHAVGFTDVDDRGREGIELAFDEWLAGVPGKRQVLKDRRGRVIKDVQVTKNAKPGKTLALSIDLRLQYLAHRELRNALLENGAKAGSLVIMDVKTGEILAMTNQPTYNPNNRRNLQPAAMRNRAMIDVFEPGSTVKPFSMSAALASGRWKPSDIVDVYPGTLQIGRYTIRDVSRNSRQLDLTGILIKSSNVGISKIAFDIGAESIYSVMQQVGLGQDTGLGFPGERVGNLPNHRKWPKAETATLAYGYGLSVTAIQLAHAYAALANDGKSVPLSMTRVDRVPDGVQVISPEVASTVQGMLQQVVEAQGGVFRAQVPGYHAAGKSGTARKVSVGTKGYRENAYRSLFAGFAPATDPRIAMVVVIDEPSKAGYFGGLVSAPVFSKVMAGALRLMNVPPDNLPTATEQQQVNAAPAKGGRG

| SMILES | P. aeruginosa PBP3 Potency [1] | MIC [2] [µg/mL] | MIC [3] [µg/mL] | MIC [4] [µg/mL] | MIC [5] [µg/mL] | MIC [6] [µg/mL] | MIC [7] [µg/mL] | MIC [8] [µg/mL] | MIC [9] [µg/mL] | MIC [10] [µg/mL] | MIC [11] [µg/mL] | MIC [12] [µg/mL] | MIC [13] [µg/mL] | EC50 [14] [µM] |
| --- | --- | --- | --- | --- | --- | --- | --- | --- | --- | --- | --- | --- | --- | --- |
| O=C(O)c1cccc2c1OB(O)[C@@H](NC(=O)[C@H](NC(=O)N1CCN(CC(F)(F)F)C(=O)C1=O)c1c(F)cc(O)cc1F)C2 (single isomer, unassigned) [Example 215] | C (C represents a potency between 10 and 30 μM) | 8 to 16 (≈ 13 to 26 µM) | 32 to 64 (≈ 52.1 to 104 µM) | 32 to 64 (≈ 52.1 to 104 µM) | 32 to 64 (≈ 52.1 to 104 µM) | 32 to 64 (≈ 52.1 to 104 µM) | > 128 | > 128 | 2 to 4 (≈ 3.26 to 6.51 µM) | > 128 | 32 to 64 (≈ 52.1 to 104 µM) | < 0.25 | 2 to 4 (≈ 3.26 to 6.51 µM) | < 30 |
| NS(=O)(=O)Nc1cccc([C@H](NC(=O)N2CCN(CC(F)(F)F)C(=O)C2=O)C(=O)N[C@H]2Cc3cccc(C(=O)O)c3OB2O)c1 (single isomer, unassigned) [Example 216] | C (C represents a potency between 10 and 30 μM) | 8 to 16 (≈ 12.2 to 24.4 µM) | 32 to 64 (≈ 48.8 to 97.5 µM) | > 128 | > 128 | > 128 | > 128 | > 128 | 32 to 64 (≈ 48.8 to 97.5 µM) | > 128 | > 128 | 2 to 4 (≈ 3.05 to 6.09 µM) | 8 to 16 (≈ 12.2 to 24.4 µM) | 30 to 500 |
| NS(=O)(=O)Nc1cccc([C@@H](NC(=O)N2CCN(CC(F)(F)F)C(=O)C2=O)C(=O)N[C@H]2Cc3cccc(C(=O)O)c3OB2O)c1 (single isomer, unassigned) [Example 217] | D (D represents a potency <10 μM) | 2 to 4 (≈ 3.05 to 6.09 µM) | 8 to 16 (≈ 12.2 to 24.4 µM) | > 128 | 32 to 64 (≈ 48.8 to 97.5 µM) | 32 to 64 (≈ 48.8 to 97.5 µM) | > 128 | > 128 | 8 to 16 (≈ 12.2 to 24.4 µM) | > 128 | 32 to 64 (≈ 48.8 to 97.5 µM) | 0.5 to 1 (≈ 0.762 to 1.52 µM) | 2 to 4 (≈ 3.05 to 6.09 µM) | < 30 |
